Target: human P2X7 receptor (Homo sapiens (Human), UniProt Q99572)
Test: P2X7 FLIPR antagonist assay (BzATP-stimulated, 293 HEK cells stably expressing P2X7 receptor)
Type: cell-based
Settings: Table 1, exemplified IC50 values; antagonist activity vs BzATP
Method: This example illustrates representative assays for use in evaluating the test compounds for antagonist activity. Compounds of the present invention were tested in vitro for their ability to act as antagonists to the P2X7 receptor.
Cells were plated to cell density of approximately 15,000 cells/well in 384-well assay plates (50 μl/well) with 1.5% low serum media (DMEM, 1.5% BCS, 1% L-glut (2 mM), 1% P/S).
Cells were plated to cell density of approximately 15,000 cells/well in 384-well assay plates (50 μl/well) with 1.5% low serum media (DMEM, 1.5% FBS, 1% L-glut (2 mM), 10 mM HEPES, 1% P/S). Cells were plated 24 hours prior to assay. Cells expressing human, rat or mouse P2X7 receptor were assayed in the following manner.
Fluo-4 NW dye mix (Molecular Probes, Inc., Eugene, Oreg., USA) was prepared in buffer (see manufacturer's instructions). Cell plates were removed from the 37° C. incubator, the media discarded and then 30 μL of dye was added to each well. Plates were placed in the 37° C., non-CO2 incubator for 30 minutes and then room temperature for 30 minutes.
B) Agonist only mixture was prepared with BzATP at a single concentration in buffer (concentration determined by dose response).
Compound mixtures (A) were added to assay plates containing cells and placed at room temperature for 30 minutes, then BzATP (B) was added. Fluorescence was read using the Tetra FLIPR® (Molecular Devices, Inc., Sunnyvale, Calif., USA) and IC50 values were calculated by standard methods to determine antagonist activity.

Chain of human P2X7 receptor (Q99572 whole entry): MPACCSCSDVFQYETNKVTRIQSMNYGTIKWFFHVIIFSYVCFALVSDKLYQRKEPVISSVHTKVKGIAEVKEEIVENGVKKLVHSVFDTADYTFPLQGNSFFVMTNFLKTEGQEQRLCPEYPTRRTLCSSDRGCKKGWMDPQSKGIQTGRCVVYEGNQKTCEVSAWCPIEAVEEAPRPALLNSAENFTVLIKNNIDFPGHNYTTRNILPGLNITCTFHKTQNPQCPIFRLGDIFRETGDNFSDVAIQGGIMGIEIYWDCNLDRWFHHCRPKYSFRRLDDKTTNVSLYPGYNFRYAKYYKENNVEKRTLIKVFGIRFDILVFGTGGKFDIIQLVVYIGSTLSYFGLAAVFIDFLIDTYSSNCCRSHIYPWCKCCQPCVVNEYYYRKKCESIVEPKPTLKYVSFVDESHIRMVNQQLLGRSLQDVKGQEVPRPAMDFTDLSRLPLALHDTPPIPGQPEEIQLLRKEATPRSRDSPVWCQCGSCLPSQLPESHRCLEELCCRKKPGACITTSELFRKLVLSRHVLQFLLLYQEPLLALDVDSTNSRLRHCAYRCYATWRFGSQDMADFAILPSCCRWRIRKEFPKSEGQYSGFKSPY

Structure (SMILES): Cc1ncc(C(CNC(=O)c2cccc(Cl)c2Cl)C2CCC(F)(F)CC2)cn1 (single isomer, unassigned; (+)) [(+)2,3-dichloro-N-[2-(4,4-difluorocyclohexyl)-2-(2-methylpyr] [(+)2,3-dichloro-N-[2-(4,4-difluorocyclohexyl)-2-(2-methylpyrimidin-5-yl)ethyl]benzamide]
- IC50: 8.4 nM

Structure (SMILES): Cc1ncc(C(CNC(=O)c2cccc(Cl)c2Cl)C2CCC(F)(F)CC2)cn1 (single isomer, unassigned; (-)) [(−)2,3-dichloro-N-[2-(4,4-difluorocyclohexyl)-2-(2-methylpyr] [(−)2,3-dichloro-N-[2-(4,4-difluorocyclohexyl)-2-(2-methylpyrimidin-5-yl)ethyl]benzamide]
- IC50: 16 nM

Structure (SMILES): O=C(NCC(CC1CC1)c1ccc(C(F)F)nc1)c1cccc(Cl)c1Cl (single isomer, unassigned; (-)) [(−)2,3-dichloro-N-[3-cyclopropyl-2-[6-(difluoromethyl)-3-pyr] [(−)2,3-dichloro-N-[3-cyclopropyl-2-[6-(difluoromethyl)-3-pyridyl]propyl]benzamide]
- IC50: 1.9 nM

Structure (SMILES): Cc1ncc(C(CNC(=O)c2cccc(Cl)c2Cl)c2ccncc2)cn1 (stereo not shown) [2,3-dichloro-N-[2-(2-methylpyrimidin-5-yl)-2-(4-pyridyl)ethyl]benzamide]
- IC50: 50 nM

Structure (SMILES): Cc1ncc(C2(C(C)NC(=O)c3c(F)cccc3Cl)CCOCC2)cn1 (stereo not shown) [2-chloro-6-fluoro-N-[1-[4-(2-methylpyrimidin-5-yl)tetrahydropyran-4-yl]ethyl]benzamide]
- IC50: 55 nM

Structure (SMILES): Cc1ncc(C(CNC(=O)c2c(F)cccc2Cl)c2ccncc2)cn1 (stereo not shown) [2-chloro-6-fluoro-N-[2-(2-methylpyrimidin-5-yl)-2-(4-pyridyl)ethyl]benzamide]
- IC50: 640 nM

Structure (SMILES): O=C(NCC1(c2cnc(C(F)(F)F)nc2)CCOCC1)c1ccccc1Cl [2-chloro-N-[[4-[2-(trifluoromethyl)pyrimidin-5-yl]tetrahydropyran-4-yl]methyl]benzamide]
- IC50: 4400 nM

From US9649308B2, “Benzamide-containing compounds and their use in the treatment of pain” (H. Lundbeck A/S, priority 2012, dated 2017)
